# Legend:
# Assay type in all cases: functional
# Settings in all cases: read-out: Activity
# Hs-578T [1] = assay: Cytotoxicity against human Hs-578T cells assessed as cell viability at 30 uM incubated for 72 hrs by SRB assay relative to control
# MDA-MB-231 [2] = assay: Cytotoxicity against human MDA-MB-231 cells assessed as cell viability at 30 uM incubated for 72 hrs by SRB assay relative to control
# MDA-MB-231 [3] = assay: Cytotoxicity against human MDA-MB-231 cells assessed as cell viability at 10 uM incubated for 72 hrs by SRB assay relative to control
# Hs-578T [4] = assay: Cytotoxicity against human Hs-578T cells assessed as cell viability at 10 uM incubated for 72 hrs by SRB assay relative to control
# MCF7 [5] = assay: Cytotoxicity against human MCF7 cells assessed as cell viability at 10 uM incubated for 72 hrs by SRB assay relative to control
# MCF7 [6] = assay: Cytotoxicity against human MCF7 cells assessed as cell viability at 30 uM incubated for 72 hrs by SRB assay relative to control
SMILES,viability at 30 µM (Hs-578T [1]),viability at 30 µM (MDA-MB-231 [2]),viability at 10 µM (MDA-MB-231 [3]),viability at 10 µM (Hs-578T [4]),viability at 10 µM (MCF7 [5]),viability at 30 µM (MCF7 [6])
COc1cccc2c1Oc1nc(-c3cccc(Cl)c3)[nH]c(=O)c1C2,49.9%,76.9%,80.8%,72%,69.8%,40.4%
COc1cccc2c1OC1=NC(c3ccc4c(c3)OCO4)NC(=O)C1=C2 (centres undefined),96.5%,62.2%,88.2%,100%,84.9%,82.1%
COc1cccc(-c2nc3c(c(=O)[nH]2)Cc2cccc(OC)c2O3)c1,85.3%,51.6%,70.5%,99.3%,93.6%,71.3%
COc1cccc2c1Oc1nc(-c3ccc(Br)cc3)[nH]c(=O)c1C2,84.4%,80.4%,83.7%,97.7%,83.8%,75.3%
Cc1cccc2c1Oc1nc(-c3ccccc3)[nH]c(=O)c1C2,62.1%,15.9%,32.6%,81.3%,34.7%,23.8%
COc1ccc(OC)c(-c2nc3c(c(=O)[nH]2)Cc2cc(Cl)ccc2O3)c1,92%,78%,91%,91.7%,69.2%,62.6%
CCC(CC)C1N=C2Oc3c(cccc3OC)C=C2C(=O)N1 (centres undefined),83%,64.1%,85.8%,98.4%,85.9%,84.8%
COc1ccccc1-c1nc2c(c(=O)[nH]1)Cc1cccc(OC)c1O2,80.2%,63.6%,82.9%,86%,85.5%,54.8%
COc1cccc2c1Oc1nc(-c3ccc(C)cc3)[nH]c(=O)c1C2,63.3%,91.1%,99.2%,86.8%,78.5%,77.2%
COc1cc(OC)c(C2N=C3Oc4ccc(Br)cc4C=C3C(=O)N2)c(OC)c1 (centres undefined),68.6%,64.4%,80.6%,95.2%,90.6%,76.2%
COc1ccccc1-c1nc2c(c(=O)[nH]1)Cc1cc(Cl)ccc1O2,38.7%,65%,88.2%,78.4%,80%,57.3%
Cc1ccc2c(c1)Cc1c(nc(-c3ccccc3)[nH]c1=O)O2,73.3%,65.6%,90.1%,96%,85.8%,73.1%
COc1cccc2c1Oc1nc(-c3cccc(Br)c3)[nH]c(=O)c1C2,40.6%,80.8%,92%,66.8%,78.4%,52.4%
COc1ccc2c(c1)C=C1C(=O)NC(c3c(OC)cc(OC)cc3OC)N=C1O2 (centres undefined),65.5%,78.5%,86.3%,97%,101%,100%
O=c1[nH]c(-c2ccccc2)nc2c1Cc1ccccc1O2,65.4%,53.2%,69.3%,76.3%,88.5%,79.2%
COc1ccc2c(c1)Cc1c(nc(-c3cccc(Cl)c3)[nH]c1=O)O2,74.7%,44.2%,80.7%,76%,79.3%,45.8%
COc1ccc2c(c1)Cc1c(nc(-c3ccccc3OC)[nH]c1=O)O2,65.6%,65.9%,85%,87.5%,90.6%,70.4%
COc1cccc2c1C(=O)c1c(O)c3c(c(O)c1C2=O)C[C@@](O)(C(=O)CO)C[C@@H]3O[C@H]1C[C@H](N)[C@H](O)[C@H](C)O1 [DOXORUBICIN],7.61%,5.85%,6.72%,8.65%,24.5%,28.8%
COc1cccc2c1Oc1nc(-c3ccccc3)[nH]c(=O)c1C2,75.8%,89.2%,91.8%,91.1%,91.2%,88.5%
COc1cc(OC)c(C2N=C3Oc4c(cccc4OC)C=C3C(=O)N2)c(OC)c1 (centres undefined),86%,77.4%,83.6%,94.8%,99.9%,91.8%
N#CC1=C(/N=C/Nc2ccccc2)Oc2ccc(Br)cc2C1CC(=O)c1ccccc1 (centres undefined),89.9%,96%,98%,96.1%,74.6%,37.9%
O=c1[nH]c(-c2ccc3c(c2)OCO3)nc2c1Cc1cc(Br)ccc1O2,78.5%,77.8%,85.3%,86.1%,83.4%,83.1%
COc1cccc2c1Oc1nc(/C=C/c3ccccc3)[nH]c(=O)c1C2,97.9%,92.5%,99.2%,99.8%,84.7%,56.7%
COc1cccc2c1Oc1nc(-c3ccccc3Cl)[nH]c(=O)c1C2,72.5%,90.1%,92.5%,81.7%,74.7%,58.2%
COc1ccc2c(c1)Cc1c(nc(-c3cc(OC)ccc3OC)[nH]c1=O)O2,96.5%,49.7%,60.9%,95.9%,63.7%,57.8%
COc1cccc2c1Oc1nc(-c3ccc(F)cc3)[nH]c(=O)c1C2,84.4%,97.8%,105%,97.5%,88.8%,82.9%
COc1cccc(-c2nc3c(c(=O)[nH]2)Cc2cc(OC)ccc2O3)c1,77%,41.2%,69.3%,88%,73.1%,49.8%
COc1cccc2c1Oc1nc(-c3ccco3)[nH]c(=O)c1C2,90.7%,85.8%,92.8%,99.8%,98.9%,100%
COc1ccc(OC)c(-c2nc3c(c(=O)[nH]2)Cc2cccc(OC)c2O3)c1,74%,88.4%,87.1%,72.7%,77.7%,76.6%
